Molecules are shown by their SMILES. “Also recorded” adds a separate entry of the source.

This is an account of results in patent US20240269116A1, “USE OF MMP INHIBITORS FOR TREATING ACUTE RESPIRATORY DISTRESS SYNDROME” (Foresee Pharmaceuticals Co., Ltd., priority 2021, published 2024).

For the experiment, the system named is LPS-induced acute lung injury (ALI). As to the kind of experiment: LPS-induced mice acute lung injury (ALI) model, BAL fluid cell counts and lung histology at 24 hours. It counts as in vivo, Male C57BL/6 mice. The procedure: The compound of formula (F-I) was evaluated for the therapeutic efficacy in the LPS-induced mice ALI model. In this study, animals were anesthetized with 2.5% isoflurane inhalation. LPS was used to create ALI at the dose of 3 mg/kg in 50 μl via a direct intratracheal injection. For sham animals, an equal volume of saline solution was directly injected into the trachea. After LPS injection, the test article compound of formula (F-I) was dosed at different single oral doses and different therapeutic time points. Male C57BL/6 mice (n=100) were used in this study. DEX was used as positive control. Animals were randomly divided into 10 groups and dose regimens are described in Table 1. At 24 hours after injection, all animals were euthanized and processed for bronchoalveolar lavage (BAL) fluid collection from bilateral lungs and formalin-fixation of lung tissue pathology studies. [table]

Setting [1] is: lung histology at 24 hours of ALI, treatment at 4 or 8 hours of ALI, all dosages, vs model.
[2] abbreviates: single oral dose at 4 or 8 hours of ALI (F-I 1, 3, 10 mg/kg; DEX 3 mg/kg), BAL at 24 hours, vs Vehicle group.

For the compound `Cc1cccc(COc2ccc(Sc3ccoc3C3NC(=O)NC3=O)cc2)c1` (stereo not drawn) [compound of formula (F-I)], the “therapeutic efficacy at lower doses” value (1 mg/kg via oral gavage at 4 or 8 hours of ALI) is recorded as “significant therapeutic efficacy”. Also, the “overall efficacy at 10 mg/kg” value (10 mg/kg at 4 hours and 8 hours of ALI, conclusion) is on record as “better”. In addition, the “dose dependence of lung tissue protection” value (1, 3, 10 mg/kg, dosing at 4 or 8 hours of ALI, histology) was “no clear dose-dependent lung tissue protection”. Also, the “overall therapeutic efficacy, dosing at 8 hours vs 4 hours of ALI” value (conclusion, dosing at 8 hours compared with 4 hours of ALI) is listed as “slightly better”. Further, the “efficacy in BAL fluid analysis, comparison of doses” value (dose of 10 mg/kg compared with 1 and 3 mg/kg) is “best efficacy”. Further, under setting [1], the “alveolar damages (lung histology)” value is “reduction”; the “bronchial and arteriole damages (lung histology)” value was “reduction”; the “total lung injury (lung histology)” value is given as “reduction”. Also, under setting [2], the “neutrophils in BAL fluid” value is reported as “clear trend of dose-dependent reduction; also recorded: reduced” and the “total inflammatory cells in BAL fluid” value is reported as “clear trend of dose-dependent reduction; also recorded: reduced”. In addition, the “effect on BAL fluid cells, treatment at 8 hours vs 4 hours of ALI” value (treatment at 8 hours of ALI compared to 4 hours of ALI) is “better effect than that at 4 hours of ALI”. Further, for the setting “treatment at 8 hours of ALI compared to 4 hours of ALI, histology at 24 hours”, the “lung histology efficacy, treatment at 8 hours vs 4 hours of ALI” value was “better efficacy”.
